Measurements: ChEMBL document CHEMBL1127957, “Synthesis and glutamate antagonist activity of 4-phosphonoalkylquinoline derivatives: A novel class of non-NMDA antagonist” (Bioorg Med Chem Lett, 1994)

Tests used:
[1] = target: Glutamate receptor ionotropic, NMDA 1 (Rattus norvegicus, UniProt P35439); assay: Binding affinity at glycine co-agonist site of rat NMDA receptor
[2] = Tested for its ability to displace [3H]glutamate from NMDA receptor
[3] = organism: Rattus norvegicus; assay: Compound was tested for the ability to inhibit kainic acid (KA)-induced inward currents in Xenopus oocytes injected with poly {A+) mRNA from rats; format: functional
[4] = Displacement of [3H]CNQX from Ionotropic glutamate receptor kainate/Ionotropic glutamate receptor AMPA in rat cortical membranes; format: cell membranes, Membrane
[5] = organism: Rattus norvegicus; assay: Compound was tested for its ability to inhibit kainic acid (KA)-induced inward currents in Xenopus oocytes injected with poly {A+) mRNA from rats; format: functional

SMILES	IC50 [1] [µM]	IC50 [2] [µM]	Ki [3] [µM]	IC50 [4] [µM]	Ki [5] [µM]
NC(Cc1cc(I)ccc1CCP(=O)(O)O)C(=O)O (stereo unspecified)	81	> 300	–	7.3	3.5
O=P(O)(O)Cc1cc(O)nc2cc(Cl)c(Cl)cc12	79	> 100	9.6	15	–
N#Cc1cc2c(cc1[N+](=O)[O-])=NC(=O)C(=O)N=2	7.9	–	–	0.13	–
O=C(O)c1cc(CCP(=O)(O)O)c2ccc(Cl)cc2n1	> 1000	> 1000	450	384	–
O=P(O)(O)Cc1cc(O)nc2cc(Cl)cc(Cl)c12	29	> 100	18.2	26	–
O=[N+]([O-])c1c(Cl)ccc2c(CP(=O)(O)O)cc(O)nc12	> 1000	> 1000	–	300	–
O=[N+]([O-])c1c(Cl)ccc2nc(O)cc(CP(=O)(O)O)c12	> 1000	> 1000	> 300	> 1000	–

The next lines start with the values.

IC50 [1] [µM]	IC50 [2] [µM]	Ki [3] [µM]	IC50 [4] [µM]	Ki [5] [µM]	SMILES
37	35	15.6	35	–	O=P(O)(O)Cc1cc(O)nc2cc(I)ccc12
69	–	132	61	–	O=C(O)c1cc(CP(=O)(O)O)c2ccc(Cl)cc2n1
> 1000	> 300	> 1000	–	–	O=P(O)(O)c1cc(O)nc2cc(Cl)ccc12
–	600	–	91	–	O=P(O)(O)CCc1cc(O)nc2cc(Cl)ccc12
10	30	32	59	–	O=P(O)(O)Cc1cc(O)nc2cc(Cl)ccc12
